Data as given in patent US8563714B2, “Bridged spiro [2.4] heptane derivatives as ALX receptor and/or FPRL2 agonists” (Actelion Pharmaceuticals Ltd., priority 2009, dated 2013).

Assays:
human ALX receptor = target: T1, human ALX receptor (Homo sapiens, UniProt P25090); assay: Intracellular calcium measurements (FLIPR), agonistic activity in HEK293-hALXR-Gα16 cells; format: cell-based; conditions: Fluo-4 calcium FLIPR, normalized to WKYMVm 10 nM
T1 construct: expressed in transfected cells; host or cells: HEK293 (HEK293-hALXR-Gα16)
T1 sequence (P25090 1-351): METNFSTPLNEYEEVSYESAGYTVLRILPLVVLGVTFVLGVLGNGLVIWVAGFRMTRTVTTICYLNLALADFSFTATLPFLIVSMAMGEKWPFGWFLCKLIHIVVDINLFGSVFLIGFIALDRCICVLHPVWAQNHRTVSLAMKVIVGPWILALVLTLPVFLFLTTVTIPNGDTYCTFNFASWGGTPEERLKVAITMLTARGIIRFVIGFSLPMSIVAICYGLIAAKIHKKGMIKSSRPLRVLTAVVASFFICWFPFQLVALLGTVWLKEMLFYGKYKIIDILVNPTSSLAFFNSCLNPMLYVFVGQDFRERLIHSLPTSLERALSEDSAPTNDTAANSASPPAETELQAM
Summary of the method: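 HEK293 cells expressing hALXR and Gα16 were loaded with 1 μM Fluo-4 AM and 20 mM HEPES for 60 min at 37°C, then exposed to serially diluted compound. FLIPR fluorescence was read at ex 488/em 540 nm. Baseline-subtracted peak responses were normalized to 10 nM WKYMVm.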

human FPRL2 = target: T2, human FPRL2 (Homo sapiens, UniProt P25089); assay: Intracellular calcium measurements (FLIPR), agonistic activity in HEK293-hFPRL2-Gα16 cells; format: cell-based; conditions: Fluo-4 calcium FLIPR, normalized to GLY14-Humanin 100 nM
T2 construct: expressed in transfected cells; host or cells: HEK293 (HEK293-hFPRL2-Gα16)
T2 sequence (P25089 1-353): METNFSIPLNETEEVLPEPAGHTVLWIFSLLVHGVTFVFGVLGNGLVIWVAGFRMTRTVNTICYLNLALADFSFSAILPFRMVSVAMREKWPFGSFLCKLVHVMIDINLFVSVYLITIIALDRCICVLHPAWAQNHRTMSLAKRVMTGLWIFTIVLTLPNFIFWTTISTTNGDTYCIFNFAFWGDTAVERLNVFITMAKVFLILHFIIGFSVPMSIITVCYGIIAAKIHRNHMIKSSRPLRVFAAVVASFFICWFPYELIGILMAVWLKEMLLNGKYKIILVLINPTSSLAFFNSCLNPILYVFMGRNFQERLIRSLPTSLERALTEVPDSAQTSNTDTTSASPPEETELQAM
Summary of the method: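 Peak values after baseline subtraction are expressed relative to 100 nM Gly14-Humanin; compounds diluted in assay buffer from 10 mM DMSO stocks.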

| SMILES | EC50 (human ALX receptor) | EC50 (human FPRL2) |
| --- | --- | --- |
| CNCCNC(=O)[C@H]1[C@H](C(=O)NCc2ccc(Br)cc2)[C@@H]2C=C[C@H]1C21CC1 (racemic) [Example 305, (5R*)—N^5-(4-Bromophenyl-methyl)-(6R*)—N^6-(2-methylamino-ethyl)-(4S*,7R*)-[4,7-ethenylene-spiro[2.4]heptane]-5,6-dicarboxamide] | 350 nM | 2050 nM |
| O=C(NC1CCNCC1)[C@H]1[C@H](C(=O)NCc2ccc(Br)cc2)[C@@H]2C=C[C@H]1C21CC1 (racemic) [Example 306, (5R*)—N^5-(4-Bromophenyl-methyl)-(6R*)—N^6-(piperidin-4-yl)-(4S*,7R*)-[4,7-ethenylene-spiro[2.4]heptane]-5,6-dicarboxamide] | 23 nM | 2760 nM |
| NCCCNC(=O)[C@H]1[C@H](C(=O)NCc2ccc(Br)cc2)[C@@H]2C=C[C@H]1C21CC1 (racemic) [Example 307, (5R*)—N^5-(4-Bromophenyl-methyl)-(6R*)—N^6-(3-amino-propyl)-(4S*,7R*)-[4,7-ethenylene-spiro[2.4]heptane]-5,6-dicarboxamide] | 76 nM | 2640 nM |
| NCc1cccc(CNC(=O)[C@H]2[C@H](C(=O)NCc3ccc(Br)cc3)[C@@H]3C=C[C@H]2C32CC2)c1 (racemic) [Example 308, (5R*)—N^5-(4-Bromophenyl-methyl)-(6R*)—N^6-(3-(aminomethyl)phenyl-methyl)-(4S*,7R*)-[4,7-ethenylene-spiro[2.4]heptane]-5,6-dicarboxamide] | 59 nM | 493 nM |
| NCc1ccc(CNC(=O)[C@H]2[C@H](C(=O)NCc3ccc(Br)cc3)[C@@H]3C=C[C@H]2C32CC2)cc1 (racemic) [Example 309, (5R*)—N^5-(4-Bromophenyl-methyl)-(6R*)—N^6-(4-(aminomethyl)phenyl-methyl)-(4S*,7R*)-[4,7-ethenylene-spiro[2.4]heptane]-5,6-dicarboxamide] | 367 nM | 1340 nM |
| CC(C)(CN)CNC(=O)[C@H]1[C@H](C(=O)NCc2ccc(Br)cc2)[C@@H]2C=C[C@H]1C21CC1 (racemic) [Example 310, (5R*)—N^5-(4-Bromophenyl-methyl)-(6R*)—N^6-(2,2-dimethyl-3-amino-propyl)-(4S*,7R*)-[4,7-ethenylene-spiro[2.4]heptane]-5,6-dicarboxamide] | 26 nM | 466 nM |
| O=C(NCC1CCNCC1)[C@H]1[C@H](C(=O)NCc2ccc(Br)cc2)[C@@H]2C=C[C@H]1C21CC1 (racemic) [Example 311, (5R*)—N^5-(4-Bromophenyl-methyl)-(6R*)—N^6-(piperidin-4-yl-methyl)-(4S*,7R*)-[4,7-ethenylene-spiro[2.4]heptane]-5,6-dicarboxamide] | 54 nM | 1170 nM |
| O=C(NCCCCN1CCCC1)[C@H]1[C@H](C(=O)NCCC2=CCCCC2)[C@@H]2C=C[C@H]1C21CC1 (racemic) [Example 341, (5R*)—N^5-(2-(Cyclohexen-1-yl)ethyl)-(6R*)—N^6-(4-pyrrolidino-butyl)-(4S*,7R*)-[4,7-ethenylene-spiro[2.4]heptane]-5,6-dicarboxamide] | 1740 nM | 165 nM |
| O=C(NCCCCN1CCCC1)[C@H]1[C@H](C(=O)NCCc2ccccn2)[C@@H]2C=C[C@H]1C21CC1 (racemic) [Example 343, (5R*)—N^5-(2-(Pyridin-2-yl)ethyl)-(6R*)—N^6-(4-pyrrolidino-butyl)-(4S*,7R*)-[4,7-ethenylene-spiro[2.4]heptane]-5,6-dicarboxamide] | > 2390 nM | 885 nM |
| CC(=O)c1csc(NC(=O)[C@H]2[C@H](C(=O)NCCCCN3CCCC3)[C@H]3C=C[C@@H]2C32CC2)n1 (racemic) [Example 344, (5R*)—N^5-(4-Acetyl-thiazol-2-yl)-(6R*)—N^6-(4-pyrrolidino-butyl)-(4S*,7R*)-[4,7-ethenylene-spiro[2.4]heptane]-5,6-dicarboxamide] | 7850 nM | 414 nM |
| O=C(NCCCCN1CCCC1)[C@H]1[C@H](C(=O)Nc2nc(C(F)(F)F)cs2)[C@@H]2C=C[C@H]1C21CC1 (racemic) [Example 345, (5R*)—N^5-(4-Trifluoromethyl-thiazol-2-yl)-(6R*)—N^6-(4-pyrrolidino-butyl)-(4S*,7R*)-[4,7-ethenylene-spiro[2.4]heptane]-5,6-dicarboxamide] | > 25000 nM | 734 nM |
| O=C(NCCCCN1CCCC1)[C@H]1[C@H](C(=O)NCc2c(F)cc(F)cc2F)[C@@H]2C=C[C@H]1C21CC1 (racemic) [Example 346, (5R*)—N^5-(2,4,6-Trifluorophenyl-methyl)-(6R*)—N^6-(4-pyrrolidino-butyl)-(4S*,7R*)-[4,7-ethenylene-spiro[2.4]heptane]-5,6-dicarboxamide] | 1540 nM | 508 nM |
| Cc1ccc(CNC(=O)[C@H]2[C@H](C(=O)NCCCCN3CCCC3)[C@H]3C=C[C@@H]2C32CC2)c(C)c1 (racemic) [Example 347, (5R*)—N^5-(2,4-Dimethylphenyl-methyl)-(6R*)—N^6-(4-pyrrolidino-butyl)-(4S*,7R*)-[4,7-ethenylene-spiro[2.4]heptane]-5,6-dicarboxamide] | 1800 nM | 417 nM |
| CC(=O)c1nc(CNC(=O)[C@H]2[C@H](C(=O)NCCCCN3CCCC3)[C@H]3C=C[C@@H]2C32CC2)cs1 (racemic) [Example 348, (5R*)—N^5-[(2-Acetyl-thiazol-4-yl)methyl]-(6R*)—N^6-(4-pyrrolidino-butyl)-(4S*,7R*)-[4,7-ethenylene-spiro[2.4]heptane]-5,6-dicarboxamide] | 3230 nM | 219 nM |
| O=C(NCCCCN1CCCC1)[C@H]1[C@H](C(=O)NCc2cccc(Cl)c2F)[C@@H]2C=C[C@H]1C21CC1 (racemic) [Example 349, (5R*)—N^5-(3-Chloro-2-fluorophenyl-methyl)-(6R*)—N^6-(4-pyrrolidino-butyl)-(4S*,7R*)-[4,7-ethenylene-spiro[2.4]heptane]-5,6-dicarboxamide] | 4720 nM | 200 nM |
| Cc1coc(NC(=O)[C@H]2[C@H](C(=O)NCCCCN3CCCC3)[C@H]3C=C[C@@H]2C32CC2)n1 (racemic) [Example 350, (5R*)—N^5-(4-Methyl-oxazol-2-yl)-(6R*)—N^6-(4-pyrrolidino-butyl)-(4S*,7R*)-[4,7-ethenylene-spiro[2.4]heptane]-5,6-dicarboxamide] | 5730 nM | 444 nM |
| CC(=O)c1cnc(CNC(=O)[C@H]2[C@H](C(=O)NCCCCN3CCCC3)[C@H]3C=C[C@@H]2C32CC2)s1 (racemic) [Example 351, (5R*)—N^5-[(5-Acetyl-thiazol-2-yl)methyl]-(6R*)—N^6-(4-pyrrolidino-butyl)-(4S*,7R*)-[4,7-ethenylene-spiro[2.4]heptane]-5,6-dicarboxamide] | 6330 nM | 94 nM |
| CC(=O)c1cccc(NC(=O)[C@H]2[C@H](C(=O)NCCCCN3CCCC3)[C@H]3C=C[C@@H]2C32CC2)c1 (racemic) [Example 352, (5R*)—N^5-(3-Acetylphenyl)-(6R*)—N^6-(4-pyrrolidino-butyl)-(4S*,7R*)-[4,7-ethenylene-spiro[2.4]heptane]-5,6-dicarboxamide] | 6700 nM | 958 nM |
